Among the test systems are MALME-3M melanoma; NCI-H226 lung; 786-0 renal; OVCAR-5 ovarian; ACHN renal; NCI/ADR-RES ovarian; OVCAR-4 ovarian; RPMI-8226 leukemia; SW-620 colon; T-47D breast; HCC-2998 colon; SF-268 CNS; KM12 colon; NCI-H23 lung; SK-MEL-28 melanoma; MCF7 breast; HT29 colon; A498 renal.
Common to all, as to assay: NCI tumour cell line growth inhibition, 48 h

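Cultured in 96-well plates, cells were exposed to test compound for 48 hours across five concentrations. The concentration for full growth arrest is given as TGI.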

As for `Cc1nn(C(=O)c2ccc(Cl)cc2)c2c1C(c1ccccc1)SC(N)=N2` (centres undefined), the TGI with MALME-3M melanoma, in the assay with NCI-H226 lung, in the assay on 786-0 renal, in the assay with OVCAR-5 ovarian, in the assay on ACHN renal and in the assay on NCI/ADR-RES ovarian was greater than 10 µM in each case. Also, the TGI in the assay with OVCAR-4 ovarian, with RPMI-8226 leukemia, with SW-620 colon, in the assay with T-47D breast, in the assay on HCC-2998 colon and in the assay on SF-268 CNS was greater than 10 µM throughout. The TGI with KM12 colon, with NCI-H23 lung, with SK-MEL-28 melanoma, in the assay on MCF7 breast and with HT29 colon was greater than 10 µM each time.
Turning to `O=c1[nH]ncc2[nH]c(-c3ccccc3)cc12`, the TGI is greater than 100 µM with MALME-3M melanoma; greater than 100 µM in the assay on NCI-H226 lung; greater than 100 µM in the assay with 786-0 renal; greater than 100 µM with OVCAR-5 ovarian; greater than 100 µM in the assay with ACHN renal; 69 µM with NCI/ADR-RES ovarian. Further, the TGI with OVCAR-4 ovarian, in the assay with RPMI-8226 leukemia, with SW-620 colon, with T-47D breast, with HCC-2998 colon and in the assay on SF-268 CNS was greater than 100 µM in each case. The TGI in the assay with KM12 colon, with NCI-H23 lung, with MCF7 breast and in the assay on HT29 colon was greater than 100 µM in each case.
Regarding `CC(=O)OCC(OC(C)=O)C(OC(C)=O)C(/C=N\Nc1nc2ccccc2c(=O)[nH]1)OC(C)=O` (centres undefined), the TGI in the assay on NCI-H226 lung, in the assay with 786-0 renal, in the assay with OVCAR-5 ovarian, in the assay on ACHN renal, with NCI/ADR-RES ovarian and in the assay on RPMI-8226 leukemia was greater than 100 µM throughout. Further, the TGI in the assay on SW-620 colon, with A498 renal, with T-47D breast, in the assay with SF-268 CNS, with KM12 colon and in the assay on NCI-H23 lung was greater than 100 µM throughout. In addition, the TGI in the assay on SK-MEL-28 melanoma, with MCF7 breast and in the assay on HT29 colon was greater than 100 µM in each case.
On to `CCOC(=O)c1ccc(N(C)Cc2cnc3nc(N)nc(N)c3n2)cc1`, for which the TGI with MALME-3M melanoma is 51.1 µM; in the assay with NCI-H226 lung it was 41.8 µM; with 786-0 renal, greater than 100 µM; with OVCAR-5 ovarian, greater than 100 µM; in the assay on ACHN renal, 20.2 µM; in the assay with NCI/ADR-RES ovarian, 38.8 µM. Besides, the TGI in the assay on RPMI-8226 leukemia was greater than 100 µM; in the assay on SW-620 colon, greater than 100 µM; in the assay on A498 renal, 59.8 µM; in the assay on T-47D breast it was 79.7 µM; in the assay on SF-268 CNS it was greater than 100 µM; with KM12 colon, greater than 100 µM. Further, the TGI with NCI-H23 lung is greater than 100 µM; in the assay on SK-MEL-28 melanoma, 83.8 µM; in the assay with MCF7 breast, 49.8 µM; in the assay with HT29 colon, greater than 100 µM.
On to `COc1cc(C2SC(N)=Nc3c2c(C)nn3C(=O)Cc2ccccc2)cc(OC)c1OC` (centres undefined), for which the TGI with NCI-H226 lung, with 786-0 renal, with ACHN renal, with RPMI-8226 leukemia, with SW-620 colon and with A498 renal was greater than 100 µM throughout. Also, the TGI in the assay with T-47D breast, with HCC-2998 colon, in the assay with SF-268 CNS, in the assay on KM12 colon, with NCI-H23 lung and with SK-MEL-28 melanoma was greater than 100 µM in each case. Further, the TGI in the assay with MCF7 breast and in the assay on HT29 colon was greater than 100 µM in each case.
Consider `CC(C)C1=CC23CCC4C(C)(C(=O)O)CCCC4(C)C2CC1C1C(=O)N(c2ccc(N4C(=O)C5C6CC7C8(C)CCCC(C)(C(=O)O)C8CCC7(C=C6C(C)C)C5C4=O)cc2)C(=O)C13` (centres undefined), for which the TGI in the assay with MALME-3M melanoma is 27.9 µM; in the assay with NCI-H226 lung, 13.7 µM; in the assay on 786-0 renal it was greater than 100 µM; with OVCAR-5 ovarian it was 22 µM; in the assay on ACHN renal, 18.4 µM; in the assay with OVCAR-4 ovarian, 25.1 µM. The TGI in the assay on RPMI-8226 leukemia worked out at 80.3 µM; in the assay with SW-620 colon it was 21.6 µM; in the assay with A498 renal it was 24.8 µM; with T-47D breast it was 26.8 µM; in the assay on HCC-2998 colon, 16.4 µM; with SF-268 CNS it was 22.3 µM. Besides, the TGI amounted to 15.2 µM with KM12 colon; 11.9 µM with NCI-H23 lung; 16.7 µM in the assay with SK-MEL-28 melanoma; 13.5 µM in the assay on MCF7 breast; 5.22 µM in the assay on HT29 colon.
As for `Cn1c(=O)oc2cc(C(=O)CN3CCN(Cc4ccc5c(c4)OCO5)CC3)c(Cl)cc21`, the TGI in the assay on MALME-3M melanoma, with 786-0 renal, in the assay on OVCAR-5 ovarian, in the assay with ACHN renal, with NCI/ADR-RES ovarian and in the assay on RPMI-8226 leukemia was greater than 100 µM each time. Also, the TGI in the assay on T-47D breast, in the assay on HCC-2998 colon, in the assay on SF-268 CNS, in the assay on NCI-H23 lung and with MCF7 breast was greater than 100 µM each time.
Regarding `CNc1cccc(-c2cc(=O)c3cc4c(cc3[nH]2)OCO4)c1`, the TGI was greater than 100 µM in the assay with MALME-3M melanoma; 8.71 µM in the assay with NCI-H226 lung; greater than 100 µM in the assay on 786-0 renal; 97.8 µM in the assay on OVCAR-5 ovarian; greater than 100 µM in the assay on ACHN renal; 0.568 µM in the assay with NCI/ADR-RES ovarian. The TGI in the assay with OVCAR-4 ovarian was greater than 100 µM; in the assay with SW-620 colon, greater than 100 µM; in the assay with T-47D breast, greater than 100 µM; in the assay on HCC-2998 colon, 1.38 µM; in the assay with SF-268 CNS, greater than 100 µM; in the assay on KM12 colon, greater than 24.7 µM. The TGI was 7.28 µM in the assay on NCI-H23 lung, greater than 100 µM in the assay on SK-MEL-28 melanoma, greater than 100 µM in the assay with MCF7 breast and 2.71 µM in the assay with HT29 colon.
`Cc1ccc([N+](=O)[O-])cc1S(=O)(=O)Nc1ccc(C(=O)/C=C/c2ccccc2)cc1`: the TGI is 39.5 µM in the assay on MALME-3M melanoma; 98.4 µM with NCI-H226 lung; 33.1 µM in the assay with 786-0 renal; 54.7 µM in the assay on OVCAR-5 ovarian; 28 µM with ACHN renal; 66.2 µM in the assay on NCI/ADR-RES ovarian. Also, the TGI in the assay on OVCAR-4 ovarian stood at 5.51 µM; in the assay on RPMI-8226 leukemia, 37.1 µM; in the assay on SW-620 colon, 59.4 µM; in the assay on T-47D breast, 44.6 µM; in the assay on HCC-2998 colon, 32.1 µM; in the assay on SF-268 CNS it was 73.2 µM. Moreover, the TGI in the assay on KM12 colon came to 32.2 µM; with NCI-H23 lung, 34.7 µM; in the assay on SK-MEL-28 melanoma, 49.6 µM; in the assay on MCF7 breast, 26.8 µM; in the assay on HT29 colon, 57.6 µM.

Source of the values: PubChem BioAssay (NCI).
